Measured values from patent US9772334B2, “Inflammatory bowel disease markers and therapies for colitis-associated intestinal fibrosis” (THE REGENTS OF THE UNIVERSITY OF CALIFORNIA, priority 2012, dated 2017).
“Also recorded” adds a separate entry of the source.

Columns and labels:
[1] = test system: TNFα expression in Raw264.7 macrophages; experiment: PAMP induced TNFα expression in Raw264.7 macrophages; assay type: cell-based, mouse; conditions: for LPS induced TNFα expression under IGF-1R inhibition: IGF-1R inhibitor 10 μM pretreatment 30 minutes, LPS 0.1 μg/ml
Description: (§1) To identify the anti-inflammatory mechanism of cathelicidin, human PBMCs and mouse macrophages to were exposed to PAMP signals (LPS and E. coli DNA) in the presence of cathelicidin LL-37 or mCRAMP (1-10 μM).

Raw264.7 macrophages = experiment: Camp mRNA expression in Raw264.7 macrophages; assay type: cell-based, mouse; conditions: 5 mM; 6 and 24 hours; serum starved
[2] = test system: human colonic epithelial NCM460 cells; experiment: Cathelicidin protein level in conditioned media of NCM460 cells; assay type: cell-based; conditions: 5 mM; 16 hours; serum starved
Source text: (§2) FIGS. 16A-16F show sodium butyrate inhibited colonic TNFα expression but not colonic microflora load. […] The decrease of TNFα levels in Camp^−/− mice was minimized (drop by 4 pg/μg protein), compared to wild-type mice (drop by 6 pg/μg protein). […] All experiments are representative of 3 independent experiments.

UC disease activity = conditions: humans; Vernia et al. 2000; cited from earlier work
DSS mediated colitis [3] = conditions: animal models; Vieira et al. 2011; cited from earlier work
DSS mediated colitis [4] = experiment: DSS mediated colitis in mice, intraperitoneal sodium butyrate; assay type: in vivo
Source text: FIGS. 15A-15D show endogenous cathelicidin induction by sodium butyrate ameliorated DSS mediated colitis in mice. FIG. 15A is an illustration of the administration of DSS and/or sodium butyrate to mCRAMP deficient (Camp^−/−) and wild-type mice (i.e., the experimental plan).
as §2
To investigate the role of endogenous cathelicidin induction in the amelioration of acute colitis, mCRAMP deficient (Camp^−/−) and wild-type mice were administered with DSS and/or sodium butyrate as illustrated in FIG. 15A. DSS colitis led to significant tissue damages (FIG. 15C) with body weight loss (FIG. 15B) and increased histology score (FIG. 15C).

CCD-18Co fibroblasts = experiment: β-tubulin expression and tubulin distribution in CCD-18Co fibroblasts; assay type: cell-based, human; conditions: for tubulin distribution (tubulin tracker): 10 μM, 24 hours
[5] = test system: human colonic CCD-18Co fibroblasts; experiment: TGF-β1 and IGF-1 induced collagen (COL1A2) expression in CCD-18Co fibroblasts; assay type: cell-based
Source text: Collagen (COL1A2) and total ERK protein expression was detected by Western blot analyses and quantitative image densitometry.

[6] = test system: Akt and ERK phosphorylation in CCD-18Co fibroblasts; experiment: Akt and ERK phosphorylation in CCD-18Co fibroblasts (Western blot); conditions: 30 minutes, concentration dependent
[7] = test system: TNFα expression in fresh human colonic biopsies; experiment: LPS induced TNFα protein expression in fresh human colonic biopsies; assay type: cell-based; conditions: LL-37 10 μM; LPS 0.1 μg/ml; 16 hours
Description: Human intestinal biopsies were obtained from normal patients, UC patients and CD patients after informed consent in accordance with procedures established by the Cedars-Sinai Institutional Review Board, IRBs 3358 and 23705 and UCLA Institutional Review Board IRB 11-001527. Baseline characteristics were outlined in FIG. 12B. Some fresh biopsies were frozen until homogenization. Some fresh colonic biopsies were cut into ˜3×3 mm pieces and incubated in serum free DMEM with 1% penicillin/streptomycin (Invitrogen) and exposed to LPS and/or LL-37.

NCM460 colonocytes = experiment: Apoptosis (cleaved PARP) in NCM460 colonocytes; assay type: cell-based, human; conditions: LL-37 10 μM; proinflammatory cytokine cocktail or TNFα 10 ng/ml; 24 hours
Description: NCM460 cells were treated with proinflammatory cytokines cocktail or TNFα (10 ng/ml) with or without LL-37 (10 μM) for 24 hours. Apoptosis signaling molecule cleaved PARP was determined by Western blot and quantification. […] All experiments are representative of 3 independent experiments.

[8] = test system: human primary colonic fibroblasts; experiment: TGF-β1 and IGF-1 induced COL1A2 mRNA expression in human primary colonic fibroblasts; assay type: cell-based; conditions: LL-37 5-10 μM; 24 hours; p=0.0108 and p=0.0049; concentration dependent
Description: Camp mRNA in Camp^−/− mice was undetectable. […] Collagen (COL1A2) and total ERK protein expression was detected by Western blot analyses and quantitative image densitometry. […] TGF-β1 and IGF-1 induced COL1A2 mRNA expression in colonic fibroblasts (P=0.049) was inhibited by LL-37 (5-10 μM, p=0.001) in concentration dependent manner. […] TGF-β1 and IGF-1 induced COL1A2 mRNA expression in colonic fibroblasts (P=0.0233) was inhibited by LL-37 (5-10 μM, p=0.0108 and p=0.0049) in concentration dependent manner. All experiments are representative of 3 independent experiments.

CCD-18Co = experiment: Cell migration of CCD-18Co in modified Boyden chamber; assay type: cell-based, human; conditions: LL-37 0-10 μM; 37° C. for 8 hours
Description: Fibroblasts accumulated in the mucosal and submucosal locations as collagen deposition. […] Three different locations (3 separate images) per sample were counted. […] Cell migration was not affected by LL-37 (0-10 μM). Results are representative of 3 independent experiments.

[9] = test system: TNFα expression in human PBMCs; experiment: PAMP induced TNFα protein expression in human PBMCs; assay type: cell-based; conditions: 16 hours
Description: as §1

[10] = inhibitor 10 μM pretreatment 30 minutes, 72 hours, p=0.0005

Compound: N#CC(=C(/N)Sc1ccccc1N)/C(C#N)=C(\N)Sc1ccccc1N [U0126]
- LPS induced TNFα expression [1]: inhibited; also recorded: suppressed LPS induced TNFα expression

Compound: N#C/C(=C\c1ccc2oc(=O)[nH]c2c1)C(=O)c1ccc(O)c(O)c1 [AGL2263]
- LPS induced TNFα expression under IGF-1R inhibition ([1]; 16 hours): not affected

Compound: N#C/C(=C\c1ccc(O)c(O)c1)C(=O)c1ccc(O)c(O)c1 [AG538]
- LPS induced TNFα expression under IGF-1R inhibition ([1]; 16 hours): not affected

Compound: mouse IGF-1: mouse insulin like growth factor-1
- effect on the mCRAMP mediated inhibition of LPS induced TNFα secretion ([1]; mouse IGF-1 80 pg/ml pretreatment 30 minutes, mCRAMP 10 μM, 16 hours): reversed the mCRAMP mediated inhibition

Compound: CCCC(=O)[O-].[Na+] [sodium butyrate]
- Camp mRNA expression (Raw264.7 macrophages): significantly increased Camp mRNA expression
- cathelicidin protein level in conditioned media [2]: significantly increased
- clinical UC disease activity (UC disease activity): reduce clinical UC disease activity
- DSS mediated colitis (DSS mediated colitis [3]): reduce
- decrease of colonic TNFα levels (DSS mediated colitis [4]; Camp−/− mice): 21 % reduction
- drop of colonic TNFα levels (DSS mediated colitis [4]; Camp−/− mice): 4 pg/μg protein
- colonic microflora load (16S expression, PCR) (DSS mediated colitis [4]; DSS exposed mice): did not cause significant change; also recorded: did not alter colonic 16S expression
- colonic Camp mRNA expression (DSS mediated colitis [4]; DSS treated mice): significantly induced; also recorded: further augmented
- colonic mCRAMP protein expression (Western blot) (DSS mediated colitis [4]; DSS treated wild-type mice): significantly induced; also recorded: increased colonic mCRAMP protein expression
- colonic TNFα levels (DSS mediated colitis [4]; both wild-type and Camp−/− mice, p=0.04): significantly reduced colonic TNFα levels
- decrease of colonic TNFα levels (DSS mediated colitis [4]; wild-type mice): 40 % reduction
- drop of colonic TNFα levels (DSS mediated colitis [4]; wild-type mice): 6 pg/μg protein
- histology score (DSS mediated colitis [4]; wild-type mice, intraperitoneal): significant decrease of histology score

Compound: COc1cccc(-c2cc(=O)c3ccccc3o2)c1N [PD98059]
- involvement in the LL-37 mediated inhibition of β-tubulin expression (CCD-18Co fibroblasts; inhibitor 10 μM pretreatment 30 minutes, LL-37 10 μM, 72 hours): not involved

Compound: C=C1[C@@H](C)[C@H]2[C@H](Cc3ccccc3)NC(=O)[C@]23OC(=O)/C=C/[C@H](O)CCC[C@@H](C)C/C=C/[C@H]3[C@@H]1O [cytochalasin B]
- tubulin distribution (tubulin tracker) (CCD-18Co fibroblasts): shrunk tubulin network in cells
- TGF-β1 and IGF-1 induced β-tubulin expression (CCD-18Co fibroblasts; [10]): affected
- TGF-β1 and IGF-1 induced COL1A2 expression [5, 10]: affected

Compound: LL-37 (LLGDFFRKSKEKIGKEFKRIVQRIKDFLRNLVPRTES)
- tubulin distribution (tubulin tracker) (CCD-18Co fibroblasts): shrunk the tubulin network
- β-tubulin expression (CCD-18Co fibroblasts; LL-37 10 μM, 72 hours): inhibition
- ERK phosphorylation ([6]; LL-37 up to 10 μM): significantly induced
- Akt phosphorylation [6]: significantly induced
- LPS induced TNFα protein expression in conditioned media [7]: almost abolished
- apoptosis (cleaved PARP, Western blot) (NCM460 colonocytes): failed to reverse PARP cleavage; also recorded: did not affect apoptosis
- TGF-β1 and IGF-1 induced COL1A2 mRNA expression [8]: inhibited
- cell migration (CCD-18Co): not affected
- LPS induced TNFα protein expression in conditioned media ([9]; LL-37 10 μM, LPS 0.1 μg/ml): significantly reduced
- E. coli DNA induced TNFα expression ([9]; LL-37 1-10 μM, E. coli DNA 0.5 μg/ml): no inhibitory effect
- TGF-β1 and IGF-1 induced COL1A2 expression (Western blot, densitometry) ([5]; 10 μM LL-37, TGF-β1 50 ng/ml and IGF-1 10 ng/ml, 48 hours, p=0.0001): significantly reduces; also recorded: reduced
- TGF-β1 and IGF-1 induced COL1A2 mRNA expression ([5]; LL-37 5-10 μM, 24 hours, p=0.001, concentration dependent): significantly reduces; also recorded: inhibited

Compound: pertussis toxin
- effect on the inhibitory effect of cathelicidin against LPS induced TNFα expression ([1]; pertussis toxin 500 ng/ml pretreatment overnight, mCRAMP 1-10 μM, 16 hours): reversed; also recorded: revered

Compound: CN([C@@H](Cc1ccc(OS(=O)(=O)c2cccc3cnccc23)cc1)C(=O)N1CCN(c2ccccc2)CC1)S(=O)(=O)c1cccc2cnccc12 [KN62]
- effect on the anti-inflammatory effect of cathelicidin against LPS ([1]; antagonist 10 μM pretreatment 30 minutes, mCRAMP 10 μM, 16 hours): did not alter the anti-inflammatory effect of cathelicidin
